As usually defined, the pEC50 is the negative decadic logarithm of the EC50, by convention in mol/L. For orientation: inhibition means the share of the control response that was lost under treatment.

pEC50: −log10 of the molar value.

Drawing on US10463651B2, “3-(1H-pyrrolo[3,2-C]pyridin-2-YL)-1H-indazoles and therapeutic uses thereof” (Samumed, LLC, priority 2015, dated 2019), this text covers EC50, Emax and inhibition for 15 molecules.

Common to all, as to format: cell-based
The test system of assay [1] is Wnt activity (Sp5-Luc reporter, SW480 colon carcinoma cells). Nature of the assay: Screening assay for Wnt activity (Sp5-Luc reporter gene assay in SW480 cells). The conditions noted are these: Homo sapiens; Sp5-Luc reporter, SW480 cells, incubated overnight. Summed up:
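SW480 colon carcinoma cells stably carrying Sp5 promoter (eight TCF/LEF sites)-driven firefly luciferase, plated at 4,000 cells/well in 1% FBS medium and incubated overnight at 37° C. Luminescence normalised to DMSO-only cells; EC50 from four-parameter variable-slope nonlinear regression.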
In general terms: A reporter such as luciferase makes a cellular process visible.

The subject of assay [2] is SW480 colon cancer cells. Description: Cell viability assay (CellTiter-Blue). To be noted: Homo sapiens, 96 h; SW480 cell viability, four days, CellTiter-Blue. The gist of the method: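 Fluorescence from resazurin reduced to resorufin by metabolically active cells was the read-out, taken after ~3 h with CellTiter-Blue.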
Assay [3] concerns primary human fibroblasts derived from IPF patients (LL29 cells) treated with TGF-β1. Nature of the assay: Inhibition of the fibrotic process (αSMA staining) in TGF-β1-treated fibroblasts. The conditions noted are these: Fibroblast, 96 h, % αSMA-positive LL29 cells, TGF-β1 20 ng/mL, 4 days. Summed up:
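LL29 fibroblasts from IPF patients, 1,500 cells/well in F12 with 1% FBS, stimulated with TGF-β1; TGF-β1 plus DMSO wells as controls. Incubation 4 days, then SYTOX green 1 μM final for 30 min at room temperature. Fibrotic response read as αSMA staining.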

Assay [4] has as its system primary human mesenchymal stem cells (hMSCs). Description: Induction of chondrogenesis in hMSCs (Rhodamine B / Nile Red nodule imaging). To be noted: for EC50: concentration required to induce 50% levels of chondrogenesis vs TGF-β3 positive control, read-out: Conc (nM) of 50% TGF-β3 activity; for Emax: maximum activity relative to TGF-β3 (10 ng/mL) positive control, read-out: Max. Activity as % TGF-β3 activity. The source says: Representative compounds were screened using primary human mesenchymal stem cells (hMSCs) to determine their ability to induce chondrogenesis (process by which cartilage is developed).
Primary human mesenchymal stem cells (hMSCs) were purchased from Lonza (Walkersville, Md.) and expanded in Mesenchymal Stem Cell Growth Media (Lonza). Cells between passage 3 and 6 were used for the experiments.
Area of nodules in each well was normalized to the average of 3 DMSO treated wells on the same plate using Excel (Microsoft Inc.). The normalized averages (fold change over DMSO) of 2 or 3 replicate wells for each compound concentration were calculated. Due to solubility limitations of some of the compounds, curve fitting was incomplete leading to inaccurate EC50 determinations.
Using TGF-β3 as a positive control, the concentration of representative compounds required to induce 50% levels of chondrogenesis is reported. In addition, the maximum activity of each compound and the respective dose that each compound reached maximum chondrogenesis activity is reported.

In assay [5] the test system is IL-6 (THP-1 cells). Nature of the assay: IL-6 inhibition in LPS-stimulated THP-1 cells (HTRF). To be noted: Homo sapiens; for pEC50: IL6 by HTRF, THP-1 cells, 500 ng/mL LPS, 22 hours. Summed up: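 THP-1 cells, pre-cultured 24 h in 1% FBS medium, treated with compound 2 h at 37 °C, then stimulated with 500 ng/mL LPS for 22 h. Secreted IL-6 measured by HTRF as the 665/620 nm ratio. Values normalized to DMSO; EC50 from four-parameter fit, duplicates.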
Background: Time-resolved FRET reads energy transfer from a long-lived donor to a nearby acceptor.

As for `Fc1ccc(-c2nccc3[nH]c(-c4n[nH]c5ccc(-c6cncc(CN7CCCC7)c6)cc45)cc23)cc1` [Compound 42, 3-(4-(4-Fluorophenyl)-1H-pyrrolo[3,2-c]pyridin-2-yl)-5-(5-(pyrrolidin-1-ylmethyl)pyridin-3-yl)-1H-indazole], the pEC50 in assay [1] was 5.44; in assay [2], 5.85; in assay [3] it was 5.87; in assay [5], 5.05. For the same molecule, in assay [4], the EC50 is 30 nM. For the same molecule, the Emax in assay [4] came out at 98%.
In the case of `CCCCC(=O)Nc1cncc(-c2ccc3[nH]nc(-c4cc5c(-c6ccccc6F)nccc5[nH]4)c3c2)c1` [Compound 75, N-(5-(3-(4-(2-Fluorophenyl)-1H-pyrrolo[3,2-c]pyridin-2-yl)-1H-indazol-5-yl)pyridin-3-yl)pentanamide], the pEC50 in assay [1] was 6.46; in assay [2] it was 6.66; in assay [3], 6.60; in assay [5], 7.41. The EC50 in assay [4] was 2700 nM. Besides, the Emax in assay [4] came out at 76%.
Take `O=C(Nc1cncc(-c2ccc3[nH]nc(-c4cc5c(N6CCCCC6)nccc5[nH]4)c3c2)c1)C1CCC1` [Compound 189, N-(5-(3-(4-(Piperidin-1-yl)-1H-pyrrolo[3,2-c]pyridin-2-yl)-1H-indazol-5-yl)pyridin-3-yl)cyclobutanecarboxamide]: the pEC50 is 6.02 in assay [1], 6.04 in assay [2], 6.47 in assay [3] and 6.63 in assay [5]. For the same molecule, the Emax in assay [4] was 34%.
In the case of `CC(C)Nc1cncc(-c2ccc3[nH]nc(-c4cc5c(-c6cc(F)cc(CNS(C)(=O)=O)c6)nccc5[nH]4)c3c2)c1` [Compound 488, N-(3-Fluoro-5-(2-(5-(5-(isopropylamino)pyridin-3-yl)-1H-indazol-3-yl)-1H-pyrrolo[3,2-c]pyridin-4-yl)benzyl)methanesulfonamide], the pEC50 in assay [1] is 6.82; in assay [2], 6.45; in assay [3] it was 6.90; in assay [5] it was 7.40. The EC50 in assay [4] worked out at 300 nM. In addition, the Emax in assay [4] was found to be 191%.
On to `CCC(=O)Nc1cncc(-c2ccc3[nH]nc(-c4cc5c(N6CCCCC6)nccc5[nH]4)c3c2)c1` [Compound 169, N-(5-(3-(4-(Piperidin-1-yl)-1H-pyrrolo[3,2-c]pyridin-2-yl)-1H-indazol-5-yl)pyridin-3-yl)propionamide], for which the negative-log EC50 (pEC50) in assay [1] was 6.35; in assay [2], 6.53; in assay [3], 6.83; in assay [5] it was 7.32. Besides, the EC50 in assay [4] came to 10 nM. In addition, the Emax in assay [4] is 244%.
In the case of `CCNCc1cncc(-c2ccc3[nH]nc(-c4cc5cnccc5[nH]4)c3c2)c1` [Compound 258, N-((5-(3-(1H-Pyrrolo[3,2-c]pyridin-2-yl)-1H-indazol-5-yl)pyridin-3-yl)methyl)ethanamine], the pEC50 in assay [1] was 5.99; in assay [2], 6.07; in assay [3] it was 5.90; in assay [5] it was 6.35. For the same molecule, the EC50 in assay [4] came to 10 nM. The Emax in assay [4] amounted to 317%.
With `CN1CCN(c2nccc3[nH]c(-c4n[nH]c5ccc(-c6cncc(NC(=O)C7CCCCC7)c6)cc45)cc23)CC1` [Compound 247, N-(5-(3-(4-(4-Methylpiperazin-1-yl)-1H-pyrrolo[3,2-c]pyridin-2-yl)-1H-indazol-5-yl)pyridin-3-yl)cyclohexanecarboxamide], the pEC50 was 5.28 in assay [1], 5.32 in assay [2], 5.48 in assay [3] and 5.05 in assay [5]. In assay [4], the Emax amounted to 38%.
For `c1ncc(-c2ccc3[nH]nc(-c4cc5c(-c6ccoc6)nccc5[nH]4)c3c2)cn1` [Compound 335, 3-(4-(Furan-3-yl)-1H-pyrrolo[3,2-c]pyridin-2-yl)-5-(pyrimidin-5-yl)-1H-indazole] the same measures were 5.72, 6.36, 6.46, 6.29 and 40%.
For `c1cc2[nH]c(-c3n[nH]c4ccc(-c5cncc(CN6CCCC6)c5)cc34)cc2cn1` [Compound 266, 5-(5-(Pyrrolidin-1-ylmethyl)pyridin-3-yl)-3-(1H-pyrrolo[3,2-c]pyridin-2-yl)-1H-indazole] the same measures were 6.10, 6.29, 5.73, 6.42 and 26%.
As for `Nc1cncc(-c2ccc3[nH]nc(-c4cc5c(-c6ccncc6)nccc5[nH]4)c3c2)c1` [Compound 115, 5-(3-(4-(Pyridin-4-yl)-1H-pyrrolo[3,2-c]pyridin-2-yl)-1H-indazol-5-yl)pyridin-3-amine], the pEC50 in assay [1] is 6.18; in assay [2] it was 5.42; in assay [3] it was 5.86; in assay [5], under 5.00. Besides, the EC50 in assay [4] worked out at 100 nM. Moreover, the Emax in assay [4] worked out at 77%. For the same molecule, the inhibition at 10 µM in assay [5] (THP-1, read-out: percent inhibition at 10 M) stood at 29%.
`CN1CCN(c2nccc3[nH]c(-c4n[nH]c5ccc(-c6cncc(NC(=O)c7ccccc7)c6)cc45)cc23)CC1` [Compound 235, N-(5-(3-(4-(4-Methylpiperazin-1-yl)-1H-pyrrolo[3,2-c]pyridin-2-yl)-1H-indazol-5-yl)pyridin-3-yl)benzamide]: the negative-log EC50 (pEC50) was 5.67 in assay [1], 5.44 in assay [2], 5.79 in assay [3] and 6.12 in assay [5]. In addition, the Emax in assay [4] worked out at 35%.
As to `Fc1ccc(-c2nccc3[nH]c(-c4n[nH]c5ccc(-c6cncnc6)cc45)cc23)cc1` [Compound 55, 3-(4-(4-Fluorophenyl)-1H-pyrrolo[3,2-c]pyridin-2-yl)-5-(pyrimidin-5-yl)-1H-indazole], the negative-log EC50 (pEC50) is 5.82 in assay [1], 5.98 in assay [2], 6.49 in assay [3] and 5.81 in assay [5]. For the same molecule, the EC50 in assay [4] stood at 10 nM. In addition, the Emax in assay [4] was found to be 194%.
Consider `Cc1ccncc1-c1ccc2[nH]nc(-c3cc4c(-c5cc(F)cc(CNS(C)(=O)=O)c5)nccc4[nH]3)c2c1` [Compound 481, N-(3-Fluoro-5-(2-(5-(4-methylpyridin-3-yl)-1H-indazol-3-yl)-1H-pyrrolo[3,2-c]pyridin-4-yl)benzyl)methanesulfonamide], for which the pEC50 in assay [1] is 6.52; in assay [2] it was 6.30; in assay [3], 6.28; in assay [5] it was 6.99. Further, the EC50 in assay [4] worked out at 300 nM. Moreover, in assay [4], the Emax turned out to be 267%.
Take `Fc1cccc(-c2nccc3[nH]c(-c4n[nH]c5ccc(-c6cncc(CN7CCC(F)(F)C7)c6)cc45)cc23)c1` [Compound 26, 5-(5-((3,3-Difluoropyrrolidin-1-yl)methyl)pyridin-3-yl)-3-(4-(3-fluorophenyl)-1H-pyrrolo[3,2-c]pyridin-2-yl)-1H-indazole]: the pEC50 in assay [1] is 6.90; in assay [2], 6.53; in assay [3], 6.77; in assay [5], 6.85. The EC50 in assay [4] was found to be 10 nM. Besides, the Emax in assay [4] was determined as 228%.
Consider `O=C(Nc1cncc(-c2ccc3[nH]nc(-c4cc5c(-c6ccccc6F)nccc5[nH]4)c3c2)c1)C1CCCC1` [Compound 78, N-(5-(3-(4-(2-Fluorophenyl)-1H-pyrrolo[3,2-c]pyridin-2-yl)-1H-indazol-5-yl)pyridin-3-yl)cyclopentanecarboxamide], for which the pEC50 was 6.38 in assay [1], 6.26 in assay [2], 6.08 in assay [3] and 7.11 in assay [5]. In assay [4], the EC50 was determined as 10 nM. Besides, in assay [4], the Emax worked out at 71%.
